Reference: patent publication US20160279187A1, “CALPAIN INHIBITORS FOR IBD AND COLORECTAL CANCER TREATMENT” (UNIVERSITY OF HAWAII, priority 2013, published 2016)
Where a SMILES comes first, the peptide text is derived from it. The star is where a group is joined. Cbz = O=C(OCc1ccccc1)*; CH2F = FC*

Tests used:
[1] = system: CT-26 WT mouse colon cancer cells; assay: proliferation assay (MTS), CT-26.WT; assay type: cell-based; details: 20 μg/ml, vs DMSO
Method: Bone marrow derived macrophages (BMDM) were prepared as previously described by methods known to those skilled in the art. On day 5 of culture, 2×10^6 BMDM were seeded in 6-well plates and the following day were primed for 18 h with TNFα (20 ng/mL), followed by 1 h stimulation with E. faecalis (1 μg/mL; ATCC). Stimulation with E. faecalis was conducted in the presence of the zLLY-CH2F calpain-2 inhibitor (20 μg/mL) or DMSO as a control. Media was removed from treated BMDM, centrifuged at 300×g for 5 min and supernatent analyzed using the Cytometric Bead Array Mouse Inflammation Kit (BD Biosciences, San Jose, Calif.). Cytokine data were analyzed using Flowjo software (Ashland, Oreg.) and GraphPad Prism version 4.0 (GraphPad, La Jolla, Calif.). Cell pellets were lysed and analyzed for IκB and NFκB by Western blot as previously described (Miyazaki, T. et al. Journal of Atherosclerosis and Thrombosis 20, 228-237, 2013). […] Each day 4 wells were quantified using Celltiter MTS reagent (Promega) and the resulting signal was used to generate a proliferation curve. Calpain activity was measured using a Calpain activity assay kit (BioVision, Inc., Milpitas, Calif.) as previously described. Colons were harvested on day 4 and calpain activity measured. […]

[2] = system: AOM/DSS induced colitis/CAC; assay: AOM/DSS induced colitis/CAC model; assay type: in vivo, C57BL/6J mice; details: for CAC pathology (blinded 4-point histological score) / total tumor volume (in words): day 63, vs vehicle control
Method: A mice colony generated from C57BL/6J mice (Jackson Laboratories) was maintained in the University of Hawaii vivarium. The mouse AOM/DSS induced colitis/CAC model was adapted from a previously described protocol (Fenouille, N. et al. J. Pathol. 227, 118-129, 2012). In brief, 8-10 wk old male mice were injected with AOM (A5486, Sigma) (12 mg/kg) on day 0 and were then treated with three 5 day cycles of 2% DSS (CAS#9011-18-1; MP Biomedicals, Santa Ana, Calif.) in drinking water alternated with regular water over 63 days. Mice in the intervention group were interperitonal injected 5 days per week with 0.75 mg/kg calpain-2 inhibitor (Calpain Inhibitor IV, zLLY-CH2F; Millipore EMD part number 208724) beginning on day 8 and then throughout the entire protocol. Control mice were injected with AOM on day 0 and received regular drinking water throughout the protocol. All animal protocols were approved by the University of Hawaii Institutional Animal Care and Use Committee.
Bone marrow derived macrophages (BMDM) were prepared as previously described by methods known to those skilled in the art. On day 5 of culture, 2×10^6 BMDM were seeded in 6-well plates and the following day were primed for 18 h with TNFα (20 ng/mL), followed by 1 h stimulation with E. faecalis (1 μg/mL; ATCC). Stimulation with E. faecalis was conducted in the presence of the zLLY-CH2F calpain-2 inhibitor (20 μg/mL) or DMSO as a control. Media was removed from treated BMDM, centrifuged at 300×g for 5 min and supernatent analyzed using the Cytometric Bead Array Mouse Inflammation Kit (BD Biosciences, San Jose, Calif.). Cytokine data were analyzed using Flowjo software (Ashland, Oreg.) and GraphPad Prism version 4.0 (GraphPad, La Jolla, Calif.). Cell pellets were lysed and analyzed for IκB and NFκB by Western blot as previously described (Miyazaki, T. et al. Journal of Atherosclerosis and Thrombosis 20, 228-237, 2013). In other experiments, mouse CT-26.WT and human HT-29 colon cancer cells were plated in 96-well plates at 10^3 cells/well with 20 μg/mL inhibitor or DMSO, followed by analyses for IκB and NFκB by Western blot as described above for BMDM. For proliferation assays, fresh media with 20 μg/mL inhibitor or DMSO were added every 2 d. Each day 4 wells were quantified using Celltiter MTS reagent (Promega) and the resulting signal was used to generate a proliferation curve. Calpain activity was measured using a Calpain activity assay kit (BioVision, Inc., Milpitas, Calif.) as previously described. Colons were harvested on day 4 and calpain activity measured. Enzyme-linked immunosorbant assay (ELISA) analyses of cecum hemoglobin has been previously described (Miyazaki, T. et al. Journal of Atherosclerosis and Thrombosis 20, 228-237, 2013).
On day 63, colons were dissected, cut longitudinally, and then were spread out on clear plastic. The colons were washed with PBS using transfer pipettes and images captured using an Infinity 2 microscope mounted camera (Lumenara, Madrid, Spain) in line with a Stemi 2000-C dissecting scope (Zeiss, Jena, Germany). Separate images were assembled into continuous colon images using Photoshop software (Adobe Systems Inc.). For histology, colon tissues were washed with PBS and fixed in 10% buffered formalin. Standard H&E staining of paraffin-embedded tissue samples was conducted as previously described (Leloup, L. & Wells, A., Expert Opinion on Therapeutic Targets 15, 309-323, 2011). Five H&E stained sections from each mouse were blindly scored for colitis pathology as previously described (Liu, T., Mendes, D. E. & Berkman, C. E. Int. J. Oncol. 44, 467-472, 2014). […]

Question: Which results are given for `CC(C)C[C@H](NC(=O)OCc1ccccc1)C(=O)N[C@@H](CC(C)C)C(=O)N[C@@H](Cc1ccc(O)cc1)C(=O)CF` [zLLY-CH2F, Z-LLY-CH2F] (Cbz-Leu-Leu-Tyr-CH2F)?
Answer: proliferation [1]: reduction; weight recovery after each administration of DSS ([2]; 0.75 mg/kg i.p. from day 8, vs vehicle control): significant increase; average number of tumors/mouse ([2]; day 63): 2 tumors/mouse; hemoglobin in cecums by ELISA (bloody diarrhea) ([2]; day 63, 0.75 mg/kg i.p., vs vehicle control): significantly lower; total tumor volume reduced by ([2]; day 63, i.p. 5 days on/2 days off from day 8, vs vehicle control): 70%; CAC pathology (blinded 4-point histological score) [2]: significantly lower; total tumor volume (in words) [2]: significantly lower; CAC pathology (blinded 4-point histological score) ([2]; listed as calpain-2 inhibitor): significantly alleviated; total tumor volume (in words) ([2]; listed as calpain-2 inhibitor): significant reduction; total tumor volume (in words) ([2]; listed as m-calpain inhibitor): very significant tumor reduction; colitis pathology and inflammatory infiltration (histology) ([2]; day 63 colon, vs vehicle control): significant decrease
